{"source": "patent US9823232B2", "about": "“Ligand for detection of chromium (III) and a process for the preparation thereof” (COUNCIL OF SCIENTIFIC & INDUSTRIAL RESEARCH, priority 2013, dated 2017)", "key": {"[1]": {"settings": "aqueous medium at RT; cited from earlier work"}, "[2]": {"settings": "predominantly organic medium; cited from earlier work"}, "[3]": {"assay": "Absorption (UV-Vis) spectral titration with B-H plot in aqueous Triton X 100 / Tris buffer pH 7.2", "type": "binding", "method": "(§1) The association constant (Kabs) of 2.4×10^3 M^−1 for the L1-Cr^3+ formation is evaluated from the absorption titration and B-H plot data (FIG. 3). A good linear fit data supported the 1:1 binding stoichiometry. For emission titration, a significant increase in emission intensity at 583 nm is observed with an increase in concentration of Cr^3+ in aqueous medium. […] The 1:1 binding stoichiometry is further confirmed from Jobs plot and presence of signal for m/z at 616.87 (Calc 616.75) in FAB-MS analysis of a mixture of L1 (1.59×10^-5 M) and (9.5×10^−5 M) Cr(ClO4)3 for [L1+Cr^3+].\n(§2) A stock solution of the receptor L1 (6.9×10^−4 M) was prepared in acetonitrile medium and 57 μL of this stock solution was added to 2.5 ml of 0.4 mM TX100 in Tris-HCL aqueous buffer medium having solution pH 7.2 to make the effective ligand concentration of 1.59×10^−5 M. The solution was used for all the photophysical studies. Cr^3+ stock solution (4.75×10^−3 M) was prepared in pure aqueous medium and was used for all studies. Emission titrations were also performed as a function of [TX100](0.1 mM, 0.23 mM, 0.32 mM, 0.4 mM, 0.6 mM) in Tris-HCl buffer medium of pH 7.2 by monitoring the increase in emission intensity (using λExt=530 nm, λMon=583 nm and slit width 2/2 nm) on binding of L1 to Cr^3+ for optimizing the maximum enhancement of the emission intensity. The relative fluorescence quantum yields (t) were estimated using equation 1 for different concentration of TX100 (0.1 mM, 0.23 mM, 0.32 mM, 0.4 mM, 0.6 mM) in Tris-HCl buffer medium (having solution pH of 7.2) and by using the Rhodamine B (φf=0.3 in aqueous medium at RT) as a reference. φf=φf′(Isample/Istd)(Astd/Asample)(η^2sample/η^2std) Eq. 1 where, φf′ was the absolute quantum yield for the rhodamine B and was used as reference; Isample and Istd are the integrated emission intensities; Asample and Astd are the absorbances at the excitation wavelength, and ηsample and ηstd are the respective refractive indices. Computational Methodology:\n(§3) Formation of Cr^3+.L1 was also confirmed from the result “Formation of Cr3+.L1 was also confirmed from the result of FAB MS study. Signal at m/z value of 616.87 (Calc 616.75) for Cr3+.L1”."}, "[4]": {"assay": "Emission (fluorescence) spectral titration with B-H plot in aqueous Triton X 100 / Tris buffer pH 7.2", "type": "binding", "method": "as §1, §2, §3\n3.28×10^−3 M Cr(III) solution in water is prepared and then it is gradually added to a solution of the ligand L1, where effective ligand concentration is 1.59×10^−5 M in a Tris buffer with solution pH of 7.2 having 0.32 mM Triton X 100. Uv-vis and luminescence spectra are recorded in absence and presence of [Cr(III)]. In emission spectra a 200 fold increase in spectral intensity at 583 nm (λext=530 nm and slit 2/2) is observed, while a simultaneous change in solution colour is observed from colourless to pink red (please refer to FIGS. 4 and 6)."}, "[5]": {"assay": "Relative fluorescence quantum yield w.r.t. Rhodamine B", "type": "physicochemical", "settings": "with Cr^3+", "method": "as §2, with “indices.” for “indices. Computational Methodology:”"}, "[6]": {"assay": "Uv-vis and emission titrations in acetonitrile medium", "type": "binding", "method": "(§4) To envisage the adverse role of high solvation enthalpy of Cr(III) in aqueous medium, similar Uv-vis and emission titrations were carried out in acetonitrile medium using ([Cr(III)]=(0-1.93×10^−4)M; and [L1]=(1.59×10^−5 M) in CH3CN) and the evaluated formation constant for Cr^3+.L1 in acetonitrile was (Ka^Abs=(1.1±0.03)·10^6 M^−1, Ka^Ems=(1.0±0.02)·10^6 M^−1 using λExt: 530 nm and λMon: 583 nm for emission titration). The binding affinity of L1 towards Cr^3+ was evaluated as Ka^ITC=(1.6±0.02)·10^6 M^−1 in acetonitrile medium at 25° C. using ITC experiments. […] Thermodynamic parameters were obtained from ITC studies (ΔG (−(8.48±0.02) kcal mol^−1), ΔH ((−20.8±0.4) kcal mol^−1) and ΔS (−41.4±0.05) cal mol^−1) (all symbols are used according to standard terminology)."}, "[7]": {"assay": "Isothermal Titration Calorimetry (ITC) in acetonitrile at 25° C.", "type": "binding", "method": "FIG. 10 depicts Isothermal Titration Calorimetry (ITC) titration profile for the binding of Cr^3+ to receptor L1 at 25° C. in acetonitrile; Top plot: raw data for the sequential 2 μl injection of Cr^3+ (1.2×10^−3 M) into solution of L1 (2.0×10^−4 M) and bottom plot of the heat evolved (kcal per mole) of Cr^3+ added.\n5.0 mM Tris-HCl aq. buffer solution was used for maintaining solution pH, unless mentioned otherwise. ESI-MS measurements were performed using a Micromass QTof-Micro instrument. FT-IR spectra were recorded as KBr pellets using a Perkin Elmer Spectra GX 2000 spectrometer. ^1H and ^13C NMR spectra were recorded on Bruker 500 MHz FT NMR (model: Avance-DPX 500). Electronic spectra were recorded with a Varian Cary 500 Scan UV-Vis-NIR Spectrophotometer, Isothermal Titration Calorimetry studies were performed in Microcal iTC200, while emission spectra were recorded using either Edinburgh Instrument Xe-900 Spectrofluorometer or PTI. For all spectroscopic studies in aqueous buffer medium as well as for studies with plant/algal cells, L1 self-assembled inside the miceller structure of TX100 was used, unless mentioned otherwise.\nas §4"}, "[8]": {"assay": "Selectivity towards various metal ions by absorption and emission spectra", "method": "To check the selectivity of Receptor L1 towards various metal ions like Li^+, Na^+, K^+, Cs^+, Mg^2+, Ca^2+, Ba^2+, Sr^2+, Zn^2+, Co^3+, Cu^2+, Ni^2+, Fe^2+, Pb^2+, Hg^2+ change in electronic as well as emission spectra were examined in 0.32 mM Triton X 100 in tris (5 mM, 25 mM NaCl) buffer medium at PH 7.2.\nHowever only in presence of Cr^3+, a strong absorption band at 562 nm and intense emission band at 583 nm (for λext=530 nm) are observed. These changes are also associated with simultaneous visually detectable change in solution colour from colourless to pink red.\nA solution of the perchlorate salts of the respective ion (Li^+, Na^+, K^+, Cs^+, Ca^2+, Mg^2+, Ba^2+, Sr^2+, Fe^2+, Ni^2+, Co^2+, Cu^2+, Mn^2+, Cd^2+, Pb^2+, Ba^2+, Zn^2+, Sr^2+, Hg^2+ and Cr^3+) and nitrate salts of lanthanides ions (Tb^3+, Ho^3+, Ce^3+, Sm^3+, Rb^+, Pr^3+, Eu^3+, Gd^3+, Nd^3+, Dy^3+, Tm^3+, Er^3+, Yb^3+) in pure aqueous medium were used for all studies. The effective final concentrations of all metal salts were maintained at 1.62×10^−4 M.\nA stock solution of the receptor L1 (6.9×10^−4 M) was prepared in acetonitrile medium and 57 μL of this stock solution was added to 2.5 ml of 0.4 mM TX100 in Tris-HCL aqueous buffer medium having solution pH 7.2 to make the effective ligand concentration of 1.59×10^−5 M. The solution was used for all the photophysical studies. […]"}, "[9]": {"settings": "[Triton X 100] 0.23 mM, aqueous medium"}, "[10]": {"settings": "[Triton X 100] 0.32 mM, Tris buffer pH 7.2"}}, "note": "Entries after “also recorded” stand apart in the source; their conditions may differ."}
{"smiles": "CCN(CC)c1ccc2c(-c3ccccc3C(=O)O)c3ccc(=[N+](CC)CC)cc-3oc2c1.[Cl-]", "note": "[Rhodamine B]", "values": [{"measurement": "Fluorescence quantum yield φf (reference)", "setting": "[1]", "result": 0.3}]}
{"smiles": "O=c1ccc2cc(/N=C/c3c4ccccc4cc4ccccc34)ccc2o1", "note": "[Receptors 3]", "values": [{"measurement": "Selectivity towards Cr(III)", "setting": "[2]", "result": "high selectivity towards Cr(III)"}]}
{"smiles": "C=CCN(CC=C)CCN1C(=O)c2ccccc2C12c1ccc(N(CC)CC)cc1Oc1cc(N(CC)CC)ccc12", "note": "[Ligand L1]", "values": [{"measurement": "Binding Constant, Uv-Vis Spectroscopic Method", "setting": "[3]; [9]", "result": 1960, "unit": "M⁻¹"}, {"measurement": "Binding Constant, Uv-Vis Spectroscopic Method", "setting": "[3]; [10]", "result": 2400, "unit": "M⁻¹"}, {"measurement": "Binding Constant, Uv-Vis Spectroscopic Method", "setting": "[3]; [Triton X 100] 0.4 mM, aqueous medium", "result": 3200, "unit": "M⁻¹"}, {"measurement": "Ka^Abs, binding constant for formation of Cr^3+.L1", "setting": "[3]; aq. buffer medium pH 7.2, absorption titration, B-H plot", "result": "3.2±0.2)·10^3 M^−1"}, {"measurement": "Increase in emission spectral intensity at 583 nm on adding Cr(III)", "setting": "[4]; L1 1.59×10^−5 M, 0.32 mM Triton X 100, Tris pH 7.2, λext 530 nm", "result": 200, "unit": "fold"}, {"measurement": "Binding Constant, Fluorescence Spectroscopic Method", "setting": "[4]; [9]", "result": 2000, "unit": "M⁻¹"}, {"measurement": "Binding Constant, Fluorescence Spectroscopic Method", "setting": "[4]; [10]", "result": 2830, "unit": "M⁻¹"}, {"measurement": "Binding Constant, Fluorescence Spectroscopic Method", "setting": "[4]; [Triton X 100] 0.4 mM, Tris pH 7.2", "result": 3250, "unit": "M⁻¹"}, {"measurement": "Ka^Ems, binding constant for formation of Cr^3+.L1", "setting": "[4]; aq. buffer medium pH 7.2, emission titration, B-H plot", "result": "(3.3±0.2)·10^3 M^−1"}, {"measurement": "Quantum yield in water w.r.t. Rhodamine B", "setting": "[5]; [Triton X 100] 0.23 mM", "result": 0.185}, {"measurement": "Quantum yield in water w.r.t. Rhodamine B", "setting": "[5]; [Triton X 100] 0.32 mM", "result": 0.211}, {"measurement": "Quantum yield in water w.r.t. Rhodamine B", "setting": "[5]; [Triton X 100] 0.4 mM", "result": 0.22}, {"measurement": "Ka^Abs, formation constant for Cr^3+.L1", "setting": "[6]", "result": "(1.1±0.03)·10^6 M^−1"}, {"measurement": "Ka^Ems, formation constant for Cr^3+.L1", "setting": "[6]; λExt 530 nm, λMon 583 nm", "result": "(1.0±0.02)·10^6 M^−1"}, {"measurement": "Ka^ITC, binding affinity towards Cr^3+", "setting": "[7]", "result": "(1.6±0.02)·10^6 M^−1"}, {"measurement": "ΔH of binding", "setting": "[7]; ITC", "result": "-20.8 ± 0.4", "unit": "kcal/mol"}, {"measurement": "ΔS of binding", "setting": "[7]; ITC", "result": "-41.4 ± 0.05 cal/(mol·K)"}, {"measurement": "Selectivity for Cr(III) over other metal ions (absorption 562 nm, emission 583 nm, colour)", "setting": "[8]; Triton X 100 in Tris buffer pH 7.2, alkali, alkaline earth and transition metal ions", "result": "selective/specific for Cr (III); also recorded: no such changes are observed"}, {"measurement": "Interference of Cr(VI)", "setting": "[8]; pure aqueous medium", "result": "does not have any interferences of Cr(VI) at all"}]}
